Key:
Format in all cases: in vivo
adiponectin = experiment: Oral administration to human volunteers: blood concentration of adiponectin; details: samples at 30 minute intervals vs time 0, FIG. 2
Protocol: In this instance the effect of oral administration of CFB on the blood concentration of adiponectin, along with the effect of administration of sodium borate (Na borate), and a placebo compound was measured. Blood samples were taken at a time 0 prior to administration in order to establish a baseline concentration for each individual. Additional samples were taken at 30 minute intervals, and the concentration of adiponectin compared to the baseline level determined for each individual. […] The mechanism for this increase in adiponectin concentration in the blood is not known, but it is contemplated that it may due to increased synthesis, increased release of stored adiponectin, or a combination of these. Therefore, in some embodiments of the inventive subject matter blood concentrations of adiponectin may be increased by about 1%, 2%, 3%, 4%, 5%, 10%, 15%, 20%, 25%, 30%, or more relative to pretreatment values following administration of a boro-carbohydrate complex.
(§1) In all of the above oral administrations, the human volunteers were provided with orally administered single daily doses of 5-50 mg of calcium fructoborate for at least 14 days. […]

YKL-40 = experiment: Oral administration to human volunteers: YKL-40 in blood (Quidel immunoassay); details: samples after 7 and 14 days vs Day 0, FIG. 3
Protocol: In all of the above oral administrations, the human volunteers were provided with orally administered single daily doses of 5-50 mg of calcium fructoborate for at least 14 days. However, it should be noted that the orally administered compositions may vary considerably, so long as at least 0.1 mg, more typically at least 1.0 mg, and most typically at least 10-100 mg of the compound are administered to the human (or other mammal). Thus, typical administrations will provide 0.001-0.01 mg/kg, more typically 0.01-0.1 mg/kg, and most typically 0.1-5.0 mg/kg (and in some cases even higher) of the boro-carbohydrate compound per day. […]
In this instance the effect of the administration of CFB on the concentration of YKL-40 in the blood of human volunteers, along with the effect of administration of sodium borate (Na borate) and a placebo compound, was measured. […]
Additional samples were taken after 7 and 14 days of treatment, and the concentration of YKL-40 compared to the baseline level determined for each individual. YKL-40 was characterized using a commercially available immunoassay from Quidel (San Diego, Calif.) according to the manufacturer's directions, and the percentage change from pretreatment concentrations of YKL-40 were calculated. […]

total osteocalcin = experiment: Oral administration to human volunteers: total osteocalcin in blood; details: data not shown
[1] = test system: under-carboxylated osteocalcin; experiment: Oral administration to human volunteers: under-carboxylated osteocalcin in blood (Cusabio immunoassay); details: single daily doses of 5-50 mg, samples after 7 and 14 days vs day 0, FIG. 1
Protocol: In this instance the effect of administration of a CFB on the concentration of under-carboxylated osteocalcin in the blood of human volunteers, along with the effect of administration of sodium borate (Na borate) and a placebo compound was measured. Blood samples were taken at day 0 prior to administration in order to establish a baseline concentration for each individual. Additional samples were taken after 7 and 14 days of treatment. Under-carboxylated osteocalcin was characterized using a commercially available immunoassay from Cusabio Biotech Co. LTD (Newark, Del.) according to the manufacturer's directions, and the percentage change from pretreatment concentrations of under-carboxylated osteocalcin were calculated. […] In some embodiments of the inventive subject matter the percentage of under-carboxylated osteocalcin (including non-carboxylated osteocalcin) may thus be reduced by about 1%, 2%, 3%, 4%, 5%, 10%, 15%, 20%, 25%, 30%, 35%, 40%, 45%, 50% or more relative to pretreatment values following oral administration of CFB.
as §1

C-reactive protein (CRP) = experiment: Oral administration to human volunteers: circulating C-reactive protein; details: FIG. 4
Protocol: In all of the above oral administrations, the human volunteers were provided with orally administered single daily doses of 5-50 mg of calcium fructoborate for at least 14 days. However, it should be noted that the orally administered compositions may vary considerably, so long as at least 0.1 mg, more typically at least 1.0 mg, and most typically at least 10-100 mg of the compound are administered to the human (or other mammal). Thus, typical administrations will provide 0.001-0.01 mg/kg, more typically 0.01-0.1 mg/kg, and most typically 0.1-5.0 mg/kg (and in some cases even higher) of the boro-carbohydrate compound per day. Such administration may be performed in numerous formats, and all types of formulations comprising contemplated compounds are deemed suitable for use herein, including as nutritional supplement, as ingredient in a snack (e.g., energy bar, fruit leather, etc.), a cereal, a beverage, etc.
Additionally, it is contemplated that compounds and compositions according to the inventive subject matter may influence various parameters associated with an inflammatory response, as YKL-40 has been proposed as a diagnostic marker for inflammation. […] Thus, it should be appreciated that contemplated compositions are especially advantageous in reduction of inflammatory markers and conditions associated with increased levels of such markers.

Row | Compound | blood concentration of adiponectin compared to baseline (adiponectin) | concentration of YKL-40 in blood, percentage change from pretreatment (YKL-40) | effect on total osteocalcin (total osteocalcin) | concentration of under-carboxylated osteocalcin in blood, percentage change from pretreatment [1] | concentration of circulating CRP (C-reactive protein (CRP))
1 | O.O.O.O.O.O.O.O.O.O.[Na+].[Na+].[O-]B1OB2OB([O-])OB(O1)O2 [sodium borate, reference compound] | similar, but markedly reduced, effect |  |  |  | 
2 | calcium fructoborate [CFB] | rapid and sustained increase | significant reduction | no discernable effect | significant reduction | substantially greater effect on reducing the concentration of CRP than sodium borate
